# Data from PMC6591251, “Discovery of potent necroptosis inhibitors targeting RIPK1 kinase activity for the treatment of inflammatory disorder and cancer metastasis” (Cell Death & Disease, 2019).
# Legend:
# Assay in all cases: RBC kinase panel
# Type in all cases: biochemical
# Conditions in all cases: ATP 10 μM, Data1, Data2
# CK2a = biological target: T1, CK2a (Homo sapiens, UniProt P68400)
# T1 construct: purchased Reaction Biology Corporation
# Outline: (§1)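 Test compound was screened at a single concentration of 1 μM, in duplicate, across a panel of 369 human kinases. Every kinase reaction contained 10 μM ATP.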
# HIPK2 = biological target: T2, HIPK2 (Homo sapiens, UniProt Q9H2X6)
# T2 construct: purchased Reaction Biology Corporation
# Outline: as §1
# IRR/INSRR = biological target: T3, IRR/INSRR (Homo sapiens, UniProt P14616)
# T3 construct: purchased Reaction Biology Corporation
# Outline: as §1
# ERK7/MAPK15 = biological target: T4, ERK7/MAPK15 (Homo sapiens, UniProt Q8TD08)
# T4 construct: purchased Reaction Biology Corporation
# Outline: as §1
# CHK2 = biological target: T5, CHK2 (Homo sapiens, UniProt O96017)
# T5 construct: purchased Reaction Biology Corporation
# Outline: as §1
# IKKe/IKBKE = biological target: T6, IKKe/IKBKE (Homo sapiens, UniProt Q14164)
# T6 construct: purchased Reaction Biology Corporation
# Outline: as §1
# EPHA7 = biological target: T7, EPHA7 (Homo sapiens, UniProt Q15375)
# T7 construct: purchased Reaction Biology Corporation
# Outline: as §1
# DMPK = biological target: T8, DMPK (Homo sapiens, UniProt Q09013)
# T8 construct: purchased Reaction Biology Corporation
# Outline: as §1
# ULK3 = biological target: T9, ULK3 (Homo sapiens, UniProt Q6PHR2)
# T9 construct: purchased Reaction Biology Corporation
# Outline: as §1
# BRSK2 = biological target: T10, BRSK2 (Homo sapiens, UniProt Q8IWQ3)
# T10 construct: purchased Reaction Biology Corporation
# Outline: as §1
# DLK/MAP3K12 = biological target: T11, DLK/MAP3K12 (Homo sapiens, UniProt Q12852)
# T11 construct: purchased Reaction Biology Corporation
# Outline: as §1
# STK22D/TSSK1 = biological target: T12, STK22D/TSSK1 (Homo sapiens, UniProt Q9BXA7)
# T12 construct: purchased Reaction Biology Corporation
# Outline: as §1
# ALK1/ACVRL1 = biological target: T13, ALK1/ACVRL1 (Homo sapiens, UniProt P37023)
# T13 construct: purchased Reaction Biology Corporation
# Outline: as §1
# RON/MST1R = biological target: T14, RON/MST1R (Homo sapiens, UniProt Q04912)
# T14 construct: purchased Reaction Biology Corporation
# Outline: as §1
# CAMK2g = biological target: T15, CAMK2g (Homo sapiens, UniProt Q13555)
# T15 construct: purchased Reaction Biology Corporation
# Outline: as §1
# MINK/MINK1 = biological target: T16, MINK/MINK1 (Homo sapiens, UniProt Q8N4C8)
# T16 construct: purchased Reaction Biology Corporation
# Outline: as §1
# FYN = biological target: T17, FYN (Homo sapiens, UniProt P06241)
# T17 construct: purchased Reaction Biology Corporation
# Outline: as §1
# ALK4/ACVR1B = biological target: T18, ALK4/ACVR1B (Homo sapiens, UniProt P36896)
# T18 construct: purchased Reaction Biology Corporation
# Outline: as §1
# MKK4 = biological target: T19, MKK4 (Homo sapiens, UniProt P45985)
# T19 construct: purchased Reaction Biology Corporation
# Outline: as §1
# DCAMKL2 = biological target: T20, DCAMKL2 (Homo sapiens, UniProt Q8N568)
# T20 construct: purchased Reaction Biology Corporation
# Outline: as §1
# DDR1 = biological target: T21, DDR1 (Homo sapiens, UniProt Q08345)
# T21 construct: purchased Reaction Biology Corporation
# Outline: as §1
# EGFR = biological target: T22, EGFR (Homo sapiens, UniProt P00533)
# T22 construct: purchased Reaction Biology Corporation
# Outline: as §1
# SGK1 = biological target: T23, SGK1 (Homo sapiens, UniProt O00141)
# T23 construct: purchased Reaction Biology Corporation
# Outline: as §1
# PHKg2 = biological target: T24, PHKg2 (Homo sapiens, UniProt P15735)
# T24 construct: purchased Reaction Biology Corporation
# Outline: as §1
# ALK6/BMPR1B = biological target: T25, ALK6/BMPR1B (Homo sapiens, UniProt O00238)
# T25 construct: purchased Reaction Biology Corporation
# Outline: as §1
# NEK7 = biological target: T26, NEK7 (Homo sapiens, UniProt Q8TDX7)
# T26 construct: purchased Reaction Biology Corporation
# Outline: as §1
# KSR1 = biological target: T27, KSR1 (Homo sapiens, UniProt Q8IVT5)
# T27 construct: purchased Reaction Biology Corporation
# Outline: as §1
# ROCK1 = biological target: T28, ROCK1 (Homo sapiens, UniProt Q13464)
# T28 construct: purchased Reaction Biology Corporation
# Outline: as §1
# CDK1/cyclin E = biological target: T29, CDK1/cyclin E (Homo sapiens, UniProt P06493)
# T29 construct: purchased Reaction Biology Corporation
# Outline: as §1
# TAOK1 = biological target: T30, TAOK1 (Homo sapiens, UniProt Q7L7X3)
# T30 construct: purchased Reaction Biology Corporation
# Outline: as §1
# CDK6/cyclin D1 = biological target: T31, CDK6/cyclin D1 (Homo sapiens, UniProt Q00534)
# T31 construct: purchased Reaction Biology Corporation
# Outline: as §1
# NEK5 = biological target: T32, NEK5 (Homo sapiens, UniProt Q6P3R8)
# T32 construct: purchased Reaction Biology Corporation
# Outline: as §1
# ERN1/IRE1 = biological target: T33, ERN1/IRE1 (Homo sapiens, UniProt O75460)
# T33 construct: purchased Reaction Biology Corporation
# Outline: as §1
# T4 sequence (Q8TD08 whole entry): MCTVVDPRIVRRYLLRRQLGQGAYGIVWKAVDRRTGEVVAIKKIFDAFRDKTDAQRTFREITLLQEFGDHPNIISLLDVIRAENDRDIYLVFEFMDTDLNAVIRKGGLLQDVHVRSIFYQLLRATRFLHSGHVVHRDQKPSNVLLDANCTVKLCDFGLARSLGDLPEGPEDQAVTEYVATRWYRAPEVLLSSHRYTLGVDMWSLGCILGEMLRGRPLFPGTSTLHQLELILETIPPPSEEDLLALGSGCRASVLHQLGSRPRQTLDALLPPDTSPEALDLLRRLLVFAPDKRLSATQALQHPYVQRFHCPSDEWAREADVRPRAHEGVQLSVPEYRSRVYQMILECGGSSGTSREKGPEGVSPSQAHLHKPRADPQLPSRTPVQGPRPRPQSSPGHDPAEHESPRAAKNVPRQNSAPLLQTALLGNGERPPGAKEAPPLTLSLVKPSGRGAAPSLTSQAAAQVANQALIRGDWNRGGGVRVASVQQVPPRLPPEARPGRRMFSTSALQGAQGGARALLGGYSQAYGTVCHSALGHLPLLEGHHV
# T30 sequence (Q7L7X3 whole entry): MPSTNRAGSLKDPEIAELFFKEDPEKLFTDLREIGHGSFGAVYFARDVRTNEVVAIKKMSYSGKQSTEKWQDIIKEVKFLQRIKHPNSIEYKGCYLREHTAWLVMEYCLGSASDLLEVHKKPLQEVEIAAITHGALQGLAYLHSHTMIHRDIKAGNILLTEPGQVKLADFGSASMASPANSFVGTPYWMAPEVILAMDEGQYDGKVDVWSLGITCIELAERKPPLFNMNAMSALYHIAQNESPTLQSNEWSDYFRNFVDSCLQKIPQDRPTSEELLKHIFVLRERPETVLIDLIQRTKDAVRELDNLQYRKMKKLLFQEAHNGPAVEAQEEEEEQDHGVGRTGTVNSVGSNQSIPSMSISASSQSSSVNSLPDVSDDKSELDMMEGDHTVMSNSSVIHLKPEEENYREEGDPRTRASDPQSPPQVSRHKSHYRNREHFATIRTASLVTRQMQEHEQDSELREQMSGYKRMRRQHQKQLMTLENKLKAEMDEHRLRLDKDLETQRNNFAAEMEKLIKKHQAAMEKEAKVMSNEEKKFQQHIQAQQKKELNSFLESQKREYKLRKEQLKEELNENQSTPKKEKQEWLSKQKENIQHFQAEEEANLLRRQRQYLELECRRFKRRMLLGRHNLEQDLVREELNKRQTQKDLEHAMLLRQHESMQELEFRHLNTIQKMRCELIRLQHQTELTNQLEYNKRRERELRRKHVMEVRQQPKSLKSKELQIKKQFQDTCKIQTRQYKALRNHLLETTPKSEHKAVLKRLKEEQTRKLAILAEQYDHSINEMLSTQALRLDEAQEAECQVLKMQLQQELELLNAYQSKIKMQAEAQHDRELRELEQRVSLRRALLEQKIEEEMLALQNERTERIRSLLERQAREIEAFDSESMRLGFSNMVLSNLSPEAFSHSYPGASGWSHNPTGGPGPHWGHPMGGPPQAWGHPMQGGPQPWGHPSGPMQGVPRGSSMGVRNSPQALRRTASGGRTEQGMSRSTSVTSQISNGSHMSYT
# T3 sequence (P14616 27-1297): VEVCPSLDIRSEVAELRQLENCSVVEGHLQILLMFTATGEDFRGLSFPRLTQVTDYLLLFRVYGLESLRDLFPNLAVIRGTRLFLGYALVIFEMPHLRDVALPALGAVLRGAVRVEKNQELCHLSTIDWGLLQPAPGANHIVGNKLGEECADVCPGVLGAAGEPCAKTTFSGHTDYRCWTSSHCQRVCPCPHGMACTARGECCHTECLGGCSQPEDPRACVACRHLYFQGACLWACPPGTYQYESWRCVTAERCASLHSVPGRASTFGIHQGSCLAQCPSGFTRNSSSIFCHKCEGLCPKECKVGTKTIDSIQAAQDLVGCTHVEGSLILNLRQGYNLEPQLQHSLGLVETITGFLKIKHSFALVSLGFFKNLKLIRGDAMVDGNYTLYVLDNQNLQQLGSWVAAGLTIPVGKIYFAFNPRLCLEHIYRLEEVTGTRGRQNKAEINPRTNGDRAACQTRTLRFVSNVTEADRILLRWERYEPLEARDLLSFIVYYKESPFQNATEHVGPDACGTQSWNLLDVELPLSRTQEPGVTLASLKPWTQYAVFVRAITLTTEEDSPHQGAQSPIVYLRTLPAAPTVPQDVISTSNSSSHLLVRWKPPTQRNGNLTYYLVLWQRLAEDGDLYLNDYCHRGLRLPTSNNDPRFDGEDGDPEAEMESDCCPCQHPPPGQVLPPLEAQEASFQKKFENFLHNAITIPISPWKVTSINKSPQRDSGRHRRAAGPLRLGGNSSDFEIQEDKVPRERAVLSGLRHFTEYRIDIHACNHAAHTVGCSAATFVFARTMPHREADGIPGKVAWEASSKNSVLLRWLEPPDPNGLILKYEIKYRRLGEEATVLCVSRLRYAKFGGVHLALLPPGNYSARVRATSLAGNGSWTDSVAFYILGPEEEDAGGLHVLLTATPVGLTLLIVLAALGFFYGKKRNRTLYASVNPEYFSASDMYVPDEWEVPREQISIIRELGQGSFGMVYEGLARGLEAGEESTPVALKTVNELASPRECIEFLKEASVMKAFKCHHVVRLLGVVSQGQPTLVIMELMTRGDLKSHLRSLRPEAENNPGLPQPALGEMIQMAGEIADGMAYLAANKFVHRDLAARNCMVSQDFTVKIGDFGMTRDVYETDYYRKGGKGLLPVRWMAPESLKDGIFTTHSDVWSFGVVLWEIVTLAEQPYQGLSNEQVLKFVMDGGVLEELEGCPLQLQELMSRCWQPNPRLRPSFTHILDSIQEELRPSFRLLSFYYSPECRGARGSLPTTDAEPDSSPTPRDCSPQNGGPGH
# T2 sequence (Q9H2X6 whole entry): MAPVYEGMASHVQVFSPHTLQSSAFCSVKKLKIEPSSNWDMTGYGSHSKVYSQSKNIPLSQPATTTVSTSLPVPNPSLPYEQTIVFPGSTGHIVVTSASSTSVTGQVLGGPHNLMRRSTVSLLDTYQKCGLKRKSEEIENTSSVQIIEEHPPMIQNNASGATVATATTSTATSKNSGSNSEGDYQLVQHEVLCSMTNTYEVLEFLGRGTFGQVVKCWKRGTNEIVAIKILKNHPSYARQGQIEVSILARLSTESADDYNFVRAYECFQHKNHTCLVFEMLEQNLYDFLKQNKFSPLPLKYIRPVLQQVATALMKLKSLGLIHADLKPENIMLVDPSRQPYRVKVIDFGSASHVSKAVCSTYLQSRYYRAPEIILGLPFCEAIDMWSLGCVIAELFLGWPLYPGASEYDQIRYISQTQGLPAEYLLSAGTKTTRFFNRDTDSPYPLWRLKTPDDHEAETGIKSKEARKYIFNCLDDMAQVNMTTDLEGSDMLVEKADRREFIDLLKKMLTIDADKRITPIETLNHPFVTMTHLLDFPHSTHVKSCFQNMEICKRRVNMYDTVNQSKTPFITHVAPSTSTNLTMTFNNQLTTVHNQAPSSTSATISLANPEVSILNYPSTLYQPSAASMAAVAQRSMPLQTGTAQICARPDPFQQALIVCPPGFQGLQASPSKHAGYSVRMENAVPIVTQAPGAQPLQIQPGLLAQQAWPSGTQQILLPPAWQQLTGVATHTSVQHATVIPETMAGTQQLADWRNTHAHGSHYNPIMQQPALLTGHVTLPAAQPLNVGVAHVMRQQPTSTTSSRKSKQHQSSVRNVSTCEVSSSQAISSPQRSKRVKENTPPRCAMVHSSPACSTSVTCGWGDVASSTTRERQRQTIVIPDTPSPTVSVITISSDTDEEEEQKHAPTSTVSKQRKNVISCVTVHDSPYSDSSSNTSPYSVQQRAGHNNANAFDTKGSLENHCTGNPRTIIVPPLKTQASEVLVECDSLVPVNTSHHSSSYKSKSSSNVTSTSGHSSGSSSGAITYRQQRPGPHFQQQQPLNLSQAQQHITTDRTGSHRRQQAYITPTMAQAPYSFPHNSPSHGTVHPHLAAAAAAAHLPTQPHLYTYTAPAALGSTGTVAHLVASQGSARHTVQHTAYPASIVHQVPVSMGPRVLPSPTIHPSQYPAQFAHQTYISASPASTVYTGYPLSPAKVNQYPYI
# T19 sequence (P45985 whole entry): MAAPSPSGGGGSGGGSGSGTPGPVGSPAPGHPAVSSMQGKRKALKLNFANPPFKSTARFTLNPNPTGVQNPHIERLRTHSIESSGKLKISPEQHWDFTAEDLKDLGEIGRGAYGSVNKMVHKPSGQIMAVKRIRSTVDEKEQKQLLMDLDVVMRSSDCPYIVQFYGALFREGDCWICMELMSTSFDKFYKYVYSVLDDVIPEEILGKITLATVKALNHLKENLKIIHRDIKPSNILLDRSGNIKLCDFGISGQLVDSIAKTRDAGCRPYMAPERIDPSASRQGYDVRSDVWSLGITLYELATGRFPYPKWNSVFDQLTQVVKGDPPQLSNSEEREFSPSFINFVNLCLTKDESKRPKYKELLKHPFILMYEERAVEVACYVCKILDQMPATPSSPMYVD
# T31 sequence (Q00534 whole entry): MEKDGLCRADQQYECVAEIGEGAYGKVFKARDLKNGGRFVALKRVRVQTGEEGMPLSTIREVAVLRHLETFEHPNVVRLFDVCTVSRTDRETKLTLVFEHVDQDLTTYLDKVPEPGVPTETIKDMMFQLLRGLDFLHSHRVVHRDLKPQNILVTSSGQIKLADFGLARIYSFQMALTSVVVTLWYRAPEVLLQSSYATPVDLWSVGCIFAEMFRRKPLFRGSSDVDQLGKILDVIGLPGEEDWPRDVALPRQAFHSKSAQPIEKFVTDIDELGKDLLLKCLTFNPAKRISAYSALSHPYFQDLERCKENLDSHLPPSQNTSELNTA
# T31 sequence (P24385 whole entry partner): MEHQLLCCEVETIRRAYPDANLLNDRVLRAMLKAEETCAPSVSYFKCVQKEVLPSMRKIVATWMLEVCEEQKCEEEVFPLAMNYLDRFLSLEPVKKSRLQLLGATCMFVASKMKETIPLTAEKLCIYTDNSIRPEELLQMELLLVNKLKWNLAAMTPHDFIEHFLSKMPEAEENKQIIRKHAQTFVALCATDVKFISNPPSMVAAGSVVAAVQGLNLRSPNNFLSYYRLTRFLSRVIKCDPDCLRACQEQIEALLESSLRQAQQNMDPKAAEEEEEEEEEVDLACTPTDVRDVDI
smiles,measurement,setting,value
"CC(=O)Nc1nc2ccc(-c3cnc(C)c(NC(=O)OC4CCCCC4)c3)cc2s1 [PK68, cyclohexyl (5-(2-acetamidobenzo[d]thiazol-6-yl)-2-methylpyridin-3-yl)carbamate]",Activity%,CK2a; 1 μM,90.49%
same,activity at 1 µM,CK2a,95.2%
same,Activity%,HIPK2; 1 μM,110.22%
same,activity at 1 µM,HIPK2,111%
same,Activity%,IRR/INSRR; 1 μM,96.94%
same,activity at 1 µM,IRR/INSRR,98%
same,Activity%,ERK7/MAPK15; 1 μM,96.80%
same,activity at 1 µM,ERK7/MAPK15,99.3%
same,Activity%,CHK2; 1 μM,98.81%
same,activity at 1 µM,CHK2,99.1%
same,Activity%,IKKe/IKBKE; 1 μM,92.74%
same,activity at 1 µM,IKKe/IKBKE,98.2%
same,Activity%,EPHA7; 1 μM,85.80%
same,activity at 1 µM,EPHA7,86.9%
same,Activity%,DMPK; 1 μM,100.30%
same,activity at 1 µM,DMPK,101%
same,Activity%,ULK3; 1 μM,92.16%
same,activity at 1 µM,ULK3,92.9%
same,Activity%,BRSK2; 1 μM,98.88%
same,activity at 1 µM,BRSK2,100%
same,Activity%,DLK/MAP3K12; 1 μM,94.64%
same,activity at 1 µM,DLK/MAP3K12,103%
same,Activity%,STK22D/TSSK1; 1 μM,103.75%
same,activity at 1 µM,STK22D/TSSK1,104%
same,Activity%,ALK1/ACVRL1; 1 μM,91.76%
same,activity at 1 µM,ALK1/ACVRL1,95.2%
same,Activity%,RON/MST1R; 1 μM,99.01%
same,activity at 1 µM,RON/MST1R,99.6%
same,Activity%,CAMK2g; 1 μM,105.45%
same,activity at 1 µM,CAMK2g,107%
same,Activity%,MINK/MINK1; 1 μM,88.92%
same,activity at 1 µM,MINK/MINK1,90.2%
same,Activity%,FYN; 1 μM,102.88%
same,activity at 1 µM,FYN,104%
same,Activity%,ALK4/ACVR1B; 1 μM,95.17%
same,activity at 1 µM,ALK4/ACVR1B,95.5%
same,Activity%,MKK4; 1 μM,98.91%
same,activity at 1 µM,MKK4,99.1%
same,Activity%,DCAMKL2; 1 μM,99.58%
same,activity at 1 µM,DCAMKL2,100%
same,Activity%,DDR1; 1 μM,80.91%
same,activity at 1 µM,DDR1,81.7%
same,Activity%,EGFR; 1 μM,99.30%
same,activity at 1 µM,EGFR,99.7%
same,Activity%,SGK1; 1 μM,93.47%
same,activity at 1 µM,SGK1,93.8%
same,Activity%,PHKg2; 1 μM,98.74%
same,activity at 1 µM,PHKg2,100%
same,Activity%,ALK6/BMPR1B; 1 μM,91.83%
same,activity at 1 µM,ALK6/BMPR1B,92.5%
same,Activity%,NEK7; 1 μM,103.37%
same,activity at 1 µM,NEK7,105%
same,Activity%,KSR1; 1 μM,101.02%
same,activity at 1 µM,KSR1,102%
same,Activity%,ROCK1; 1 μM,99.31%
same,activity at 1 µM,ROCK1,101%
same,Activity%,CDK1/cyclin E; 1 μM,101.92%
same,activity at 1 µM,CDK1/cyclin E,102%
same,Activity%,TAOK1; 1 μM,79.31%
same,activity at 1 µM,TAOK1,79.8%
same,Activity%,CDK6/cyclin D1; 1 μM,93.73%
same,activity at 1 µM,CDK6/cyclin D1,93.8%
same,Activity%,NEK5; 1 μM,95.10%
same,activity at 1 µM,NEK5,95.5%
same,Activity%,ERN1/IRE1; 1 μM,88.33%
same,activity at 1 µM,ERN1/IRE1,88.7%
